One series deals with HCoV-229E. In words: Plaque reduction assay, HCoV-229E in Vero E6 cells. Type of series: cell-based. On the procedure: (§1) Vero E6 cells were incubated in the presence of PDSTP and reference compounds (100.0, 20.0, 4.0, and 0.8 μM concentrations) for 1 h at 37°C in a 5% CO2 and then infected for 1 h with 250 μL of the corresponding virus (SARS-CoV-2 PV10734 or HCoV-229E) dilutions to obtain 50–100 PFU/well. The plates were then incubated for 1 h at 37°C in a 5% CO2 atmosphere. Following the removal of the unabsorbed virus, 400 μL of the medium (D-MEM with L-glutamine, 4,500 mg/L D-glucose, and 1% inactivated FBS) containing 0.75% methyl-cellulose (M0512, viscosity 4,000 cP, Sigma-Aldrich, United States) and the serial dilutions of the compounds were added and incubated for 4 (SARS-CoV-2) or 2 (HCoV-229E) days at 37°C in a 5% CO2 atmosphere. Subsequently, the cells were fixed and stained with a 0.2% crystal violet solution (V5265, Sigma-Aldrich, United States) and then the number of plaques was calculated. The degree of cell growth/viability and viral multiplication at each drug concentration tested was expressed as a percentage of the untreated control. Concentrations resulting in 50% inhibition (CC50 or EC50) were determined using linear regression analysis.
On the technique in general: Plaque reduction counts the foci of infection that form in a cell layer.

In series [1] the test system is SARS-CoV-2 clinical isolate VR PV10734. In words: Plaque reduction assay, SARS-CoV-2 VR PV10734 in Vero E6 cells. Type of series: cell-based. As to conditions: Severe acute respiratory syndrome coronavirus 2, Vero C1008, mean ± SD, read-out: Antiviral activity IC50 against coronaviruses, SARS-CoV-2 clinical isolate VR PV10734, PR. The method, then: as §1
Series [2] concerns herpes simplex epithelial keratitis. Also on record: method as in Alimbarova et al., 2022. The following applies: rabbit model; ref Alimbarova et al., 2022; cited from earlier work.
The subject of series [3] is SARS-CoV-2 clinical isolate 35245. The series is described as follows: Plaque reduction assay, SARS-CoV-2 35245. Type of series: cell-based. The following applies: Severe acute respiratory syndrome coronavirus 2, read-out: Antiviral activity IC50 against coronaviruses, SARS-CoV-2 clinical isolate 35245, PR.
Series [4] has as its system Salmonella typhimurium strains TA 97, TA 98 and TA 100. The series is described as follows: Ames test (Salmonella/microsome test). The following applies: 0.1 to 1000 µg/ cup; MA+ and MA-. On the procedure: PDSTP doses tested: 0.1 to 1000 µg/ cup.
Test subjects: Salmonella typhimurium strains TA 97, TA 98 and TA 100.
Metabolic activation: MA+ and MA-.

Another series deals with mouse bone marrow cells. In words: Chromosomal aberrations in mouse bone marrow cells. The format is in vivo, F1 hybrids of SWAxC57BL/6 mice. As to conditions: 400 mg/kg and 1000 mg/kg topically. The method, then:
PDSTP doses tested: 400 mg/kg and 1000 mg/kg
Test subjects: F1 hybrids of SWAxC57BL/6 mice.
Method of administration: topically

Series [5] can be described thus: Acute toxicity, intragastric administration, mice. The format is in vivo. As to conditions: maximum dose 1000 mg/kg.
A short description of series [6]: Allergenicity study, delayed-type hypersensitivity, mice. Type of series: in vivo. As to conditions: SWA x C57BL/6 mice.
A short description of series [7]: Chronic toxicity, intranasal administration, rats. The format is in vivo. The following applies: repeated administration for 14 days, 10-200 mg/kg.
The subject of another series is SARS-COV-2 PV10734. The series is described as follows: Time-of-addition and cell pre-treatment assay in Vero cells. The format is cell-based.
The test system of series [8] is SARS-CoV-2 clinical isolate 35245. In words: Microtetrazolium (MTT) test, SARS-CoV-2 35245. Type of series: cell-based. As to conditions: Severe acute respiratory syndrome coronavirus 2, read-out: Antiviral activity IC50 against coronaviruses, SARS-CoV-2 clinical isolate 35245, MTT. On the procedure: The compound’s activity against OC43 and SARS-CoV-235245 was based on the inhibition of virus-induced cytopathogenicity in acutely infected Vero-76 cells (MOI 0.01). Briefly, Vero-76 cells were seeded in 96-well plates at a density of 3 × 10^4 cells/well and incubated in a growth medium in a 5% CO2 at 37°C overnight. Cell monolayers were then infected with 50 μL of the appropriate viral dilution in maintenance medium [D-MEM and MEM-Earl (Gibco, Thermo Fisher Scientific, MA United States) with L-glutamine (Gibco), 1 mM sodium pyruvate (Gibco), and 0.025 g/L kanamycin (Gibco), supplemented with 0.5% inactivated FBS (Harlan Sera-Lab, Loughborough, United Kingdom), respectively] to give an MOI of 0.01, without or with serial dilutions of test samples. After 6 (HCoV-OC43) and 4/5 (SARS-CoV-2) days of incubation at 37°C, the extent of cell viability was quantified using a tetrazolium-based colorimetric method, in which the reduction of 3-(4,5-dimethylthiazol-2-yl)-2,5-diphenyl-tetrazolium bromide (MTT) by mitochondrial dehydrogenases to a soluble colored formazan was measured using a spectrophotometer (Infinity 200, Tecan Austria GmbH, Austria) at 570 nm, as previously reported ([Sanna et al., 2020]).

A short description of series [9]: Allergenicity study, guinea pigs. As to conditions: intradermal sensitizing dose 40 µg into the ear; epicutaneous and conjunctival testing. The format is in vivo.
A further series concerns HCoV-OC43. In words: MTT test, HCoV-OC43 in Vero-76 cells. The format is cell-based. As to conditions: Betacoronavirus 1, OC43, Vero 76, read-out: IC50 (HCoV-OC43). (In general: Formazan colour is commonly taken as a measure of viable cells.)
Series [10] can be described thus: Immunotoxicity study, long-term topical application. The format is in vivo. An excerpt:
Conclusion: PDSTP compound has no effect on humoral immunity and functional activity of macrophages when applied topically for 30 days in doses up to 100 TD.

“Also recorded” adds a separate entry of the source.

What is called IC50 is the point on the concentration scale where inhibition reaches its midpoint. Take `Cc1nc(N2CC[N+]3(CC2)CC[N+]2(CCNCC2)CC3)c([N+](=O)[O-])c(N2CC[N+]3(CC2)CC[N+]2(CCNCC2)CC3)n1.Cl.Cl.O.O.O.O.O.O.O.O.O.[Cl-].[Cl-].[Cl-].[Cl-]` [PDSTP, 3,3′-(2-methyl-5-nitropyrimidine-4,6-diyl)bis-3,12-diaza-6,9-diazonia-dispiro[5.2.5.2]hexadecane tetrachloride dihydrochloride nonahydrate]: the “Antiviral activity against alphacoronavirus HCoV-229E” value in the series with HCoV-229E is “no in vitro activity; also recorded: No antiviral activity was detected”. The IC50 in the series on HCoV-229E (Human coronavirus 229E, Vero C1008, Vero E6, mean ± SD, read-out: Antiviral activity IC50 against coronaviruses, HCoV-229E, PR) is greater than 100 µM; in series [1], 1800 ± 300 nM; in series [3], 21.4 ± 7.4 µM; in [8], 14.5 ± 3.3 µM; in the series with HCoV-OC43, 700 ± 400 nM. For the same compound, in series [2], the “Reduction of mean progression and corneal lesions” value is given as “comparable to traditional aciclovir”. The “Mutagenic activity (Ames test)” value in [4] is “no mutagenic activity”. Further, the “Induction of chromosomal aberrations” value in the series with mouse bone marrow cells was “did not reveal the ability to induce chromosomal aberrations”. Further, in [5], the Clinical signs entry is “piloerection and diarrhea, deterioration of hair coat, decreased motor activity, and decreased body weight”. Moreover, the Mortality result in series [5] is “The death of animals was not recorded”. Moreover, the Delayed-type hypersensitivity result in series [6] is listed as “No delayed-type hypersensitivity was detected”. Also, in series [7], the “Toxic effect on organs and systems” value is “toxic effect on organs and systems was not revealed”. For the same compound, the “Antiviral activity, pre-treatment and early stages of infection” value with SARS-COV-2 PV10734 is given as “exhibited antiviral activity”. Besides, the “Inhibitory effect at the later stages of infection” value with SARS-COV-2 PV10734 is “barely noticeable”. In [9], the Sensitizing properties entry is reported as “no sensitizing properties”. Moreover, in [10] (long-term topical applications, immunosuppression only at maximum dose of 100 TD, reversible 14 days after withdrawal), the “Effect on cellular immunity” value was “tends to suppress cellular immunity”. The “Effect on humoral immunity and functional activity of macrophages” value in series [10] (topically for 30 days in doses up to 100 TD) is recorded as “no effect”.

Values taken from PMC11931052, “Efficacy of dispirotripiperazine PDSTP in a golden Syrian hamster model of SARS-CoV-2 infection” (Frontiers in Microbiology, 2025).
